Tests used:
Experiment in all cases: relative viability (nuclei count vs DMSO), 5 days (fraction); higher = more cells survive
NCI-H1944 = tested on: NCI-H1944
Outline: (§1)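 Each reported value is a median over duplicate plates. It expresses relative viability: treated-well nuclei count divided by vehicle-well nuclei count. Lung cancer cell lines in 1536-well plates were dosed by pin tool a day after seeding, alone with one drug or with a fixed anchor-drug dose plus five library-drug doses (not always all listed) in √10 steps, and nuclei were counted after 5 days.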

NCI-H2405 = tested on: NCI-H2405
Outline: as §1

UMC-11 = tested on: UMC-11
Outline: as §1

LU99A = tested on: LU99A
Outline: as §1

HCC-78 = tested on: HCC-78
Outline: as §1

LOU-NH91 = tested on: LOU-NH91
Outline: as §1

LC-2-ad = tested on: LC-2-ad
Outline: as §1

RERF-LC-KJ = tested on: RERF-LC-KJ
Outline: as §1

NCI-H1395 = tested on: NCI-H1395
Outline: as §1

NCI-H1734 = tested on: NCI-H1734
Outline: as §1

NCI-H1651 = tested on: NCI-H1651
Outline: as §1

NCI-H2228 = tested on: NCI-H2228
Outline: as §1

ChaGo-K-1 = tested on: ChaGo-K-1
Outline: as §1

NCI-H1793 = tested on: NCI-H1793
Outline: as §1

NCI-H3122 = tested on: NCI-H3122
Outline: as §1

ABC-1 = tested on: ABC-1
Outline: as §1

HCC-366 = tested on: HCC-366
Outline: as §1

NCI-H460 = tested on: NCI-H460
Outline: as §1

NCI-H2170 = tested on: NCI-H2170
Outline: as §1

CAL-12T = tested on: CAL-12T
Outline: as §1

PC-3 [JPC-3] = tested on: PC-3 [JPC-3]
Outline: as §1

NCI-H2087 = tested on: NCI-H2087
Outline: as §1

NCI-H1755 = tested on: NCI-H1755
Outline: as §1

## NC(=O)Nc1cc(-c2cccc(F)c2)sc1C(=O)N[C@H]1CCCNC1 [AZD7762] + COc1cc2c(Oc3ccc(NC(=O)C4(C(=O)Nc5ccc(F)cc5)CC4)cc3F)ccnc2cc1OCCCN1CCOCC1 [Foretinib] (partner 0.25 µM)
NCI-H1944; first compound 0.01 µM
  relative viability: 0.907
NCI-H1944; first compound 0.03162 µM
  relative viability: 0.975
NCI-H1944; first compound 0.1 µM
  relative viability: 1.06
NCI-H1944; first compound 0.3162 µM
  relative viability: 1.08
NCI-H1944; first compound 1 µM
  relative viability: 0.591
NCI-H2405; first compound 0.01 µM
  relative viability: 1.13
NCI-H2405; first compound 0.03162 µM
  relative viability: 1.07
NCI-H2405; first compound 0.1 µM
  relative viability: 1.05
NCI-H2405; first compound 0.3162 µM
  relative viability: 1.03
NCI-H2405; first compound 1 µM
  relative viability: 0.67
UMC-11; first compound 0.01 µM
  relative viability: 1.04
UMC-11; first compound 0.03162 µM
  relative viability: 1.1
UMC-11; first compound 0.1 µM
  relative viability: 1.11
UMC-11; first compound 0.3162 µM
  relative viability: 0.765
UMC-11; first compound 1 µM
  relative viability: 0.384
LU99A; first compound 0.01 µM
  relative viability: 0.798
LU99A; first compound 0.03162 µM
  relative viability: 0.828
LU99A; first compound 0.1 µM
  relative viability: 0.791
LU99A; first compound 0.3162 µM
  relative viability: 0.822
LU99A; first compound 1 µM
  relative viability: 0.537
HCC-78; first compound 0.01 µM
  relative viability: 0.619
HCC-78; first compound 0.03162 µM
  relative viability: 0.611
HCC-78; first compound 0.1 µM
  relative viability: 0.589
HCC-78; first compound 0.3162 µM
  relative viability: 0.682
HCC-78; first compound 1 µM
  relative viability: 0.578
LOU-NH91; first compound 0.01 µM
  relative viability: 0.925
LOU-NH91; first compound 0.03162 µM
  relative viability: 0.947
LOU-NH91; first compound 0.1 µM
  relative viability: 0.96
LOU-NH91; first compound 0.3162 µM
  relative viability: 0.93
LOU-NH91; first compound 1 µM
  relative viability: 0.737
LC-2-ad; first compound 0.01 µM
  relative viability: 1.15
LC-2-ad; first compound 0.03162 µM
  relative viability: 1.09
LC-2-ad; first compound 0.1 µM
  relative viability: 1.07
LC-2-ad; first compound 0.3162 µM
  relative viability: 1.18
LC-2-ad; first compound 1 µM
  relative viability: 0.756
RERF-LC-KJ; first compound 0.01 µM
  relative viability: 0.882
RERF-LC-KJ; first compound 0.03162 µM
  relative viability: 0.891
RERF-LC-KJ; first compound 0.1 µM
  relative viability: 0.965
RERF-LC-KJ; first compound 0.3162 µM
  relative viability: 0.944
RERF-LC-KJ; first compound 1 µM
  relative viability: 0.97
NCI-H1395; first compound 0.01 µM
  relative viability: 0.974
NCI-H1395; first compound 0.03162 µM
  relative viability: 1.08
NCI-H1395; first compound 0.1 µM
  relative viability: 1.1
NCI-H1395; first compound 0.3162 µM
  relative viability: 0.91
NCI-H1395; first compound 1 µM
  relative viability: 0.452
NCI-H1734; first compound 0.01 µM
  relative viability: 0.979
NCI-H1734; first compound 0.03162 µM
  relative viability: 0.97
NCI-H1734; first compound 0.1 µM
  relative viability: 0.929
NCI-H1734; first compound 0.3162 µM
  relative viability: 0.807
NCI-H1734; first compound 1 µM
  relative viability: 0.436
NCI-H1651; first compound 0.01 µM
  relative viability: 0.912
NCI-H1651; first compound 0.03162 µM
  relative viability: 0.785
NCI-H1651; first compound 0.1 µM
  relative viability: 0.693
NCI-H1651; first compound 0.3162 µM
  relative viability: 0.573
NCI-H1651; first compound 1 µM
  relative viability: 0.186
NCI-H2228; first compound 0.01 µM
  relative viability: 0.851
NCI-H2228; first compound 0.03162 µM
  relative viability: 0.788
NCI-H2228; first compound 0.1 µM
  relative viability: 0.825
NCI-H2228; first compound 0.3162 µM
  relative viability: 0.828
NCI-H2228; first compound 1 µM
  relative viability: 0.265
ChaGo-K-1; first compound 0.01 µM
  relative viability: 0.924
ChaGo-K-1; first compound 0.03162 µM
  relative viability: 0.937
ChaGo-K-1; first compound 0.1 µM
  relative viability: 1.02
ChaGo-K-1; first compound 0.3162 µM
  relative viability: 0.899
ChaGo-K-1; first compound 1 µM
  relative viability: 0.976
NCI-H1793; first compound 0.01 µM
  relative viability: 0.732
NCI-H1793; first compound 0.03162 µM
  relative viability: 0.682
NCI-H1793; first compound 0.1 µM
  relative viability: 0.595
NCI-H1793; first compound 0.3162 µM
  relative viability: 0.8
NCI-H1793; first compound 1 µM
  relative viability: 0.608
NCI-H3122; first compound 0.01 µM
  relative viability: 0.911
NCI-H3122; first compound 0.03162 µM
  relative viability: 0.905
NCI-H3122; first compound 0.1 µM
  relative viability: 0.995
NCI-H3122; first compound 0.3162 µM
  relative viability: 0.996
NCI-H3122; first compound 1 µM
  relative viability: 0.996
ABC-1; first compound 0.01 µM
  relative viability: 1.22
ABC-1; first compound 0.03162 µM
  relative viability: 1.23
ABC-1; first compound 0.1 µM
  relative viability: 0.851
ABC-1; first compound 0.3162 µM
  relative viability: 0.402
ABC-1; first compound 1 µM
  relative viability: 0.212
HCC-366; first compound 0.01 µM
  relative viability: 0.954
HCC-366; first compound 0.03162 µM
  relative viability: 0.927
HCC-366; first compound 0.1 µM
  relative viability: 0.978
HCC-366; first compound 0.3162 µM
  relative viability: 0.973
HCC-366; first compound 1 µM
  relative viability: 0.312
NCI-H460; first compound 0.01 µM
  relative viability: 1.12
NCI-H460; first compound 0.03162 µM
  relative viability: 1
NCI-H460; first compound 0.1 µM
  relative viability: 1.01
NCI-H460; first compound 0.3162 µM
  relative viability: 0.964
NCI-H460; first compound 1 µM
  relative viability: 0.176
NCI-H2170; first compound 0.01 µM
  relative viability: 0.925
NCI-H2170; first compound 0.03162 µM
  relative viability: 1.06
NCI-H2170; first compound 0.1 µM
  relative viability: 0.984
NCI-H2170; first compound 0.3162 µM
  relative viability: 1.04
NCI-H2170; first compound 1 µM
  relative viability: 1.13
CAL-12T; first compound 0.01 µM
  relative viability: 1.34
CAL-12T; first compound 0.03162 µM
  relative viability: 1.01
CAL-12T; first compound 0.1 µM
  relative viability: 1.13
CAL-12T; first compound 0.3162 µM
  relative viability: 0.874
CAL-12T; first compound 1 µM
  relative viability: 0.217
PC-3 [JPC-3]; first compound 0.01 µM
  relative viability: 1.06
PC-3 [JPC-3]; first compound 0.03162 µM
  relative viability: 1.06
PC-3 [JPC-3]; first compound 0.1 µM
  relative viability: 1.04
PC-3 [JPC-3]; first compound 0.3162 µM
  relative viability: 1.13
PC-3 [JPC-3]; first compound 1 µM
  relative viability: 1.02
NCI-H2087; first compound 0.01 µM
  relative viability: 1.28
NCI-H2087; first compound 0.03162 µM
  relative viability: 1.12
NCI-H2087; first compound 0.1 µM
  relative viability: 1.34
NCI-H2087; first compound 0.3162 µM
  relative viability: 1.32
NCI-H2087; first compound 1 µM
  relative viability: 1.29
NCI-H1755; first compound 0.01 µM
  relative viability: 0.908
NCI-H1755; first compound 0.03162 µM
  relative viability: 0.96
NCI-H1755; first compound 0.1 µM
  relative viability: 0.921
NCI-H1755; first compound 0.3162 µM
  relative viability: 0.918
NCI-H1755; first compound 1 µM
  relative viability: 0.473
